Source: ChEMBL document CHEMBL6092219, “Structure-Based Design of Covalent SARS-CoV-2 Papain-like Protease Inhibitors” (J Med Chem, 2024)

How the values were obtained:
[1] = tested on: SARS-CoV-2; experiment: Antiviral activity against nirmatrelvir-resistant SARS-CoV-2 harboring rL50F/E166A/L167F mutant infected in human Caco-2 cells expressing hTMPRSS/hACE2 incubated for 48 hrs in presence of CP-100356 by crystal violet staining based analysis; type: functional, organism-based, Severe acute respiratory syndrome coronavirus 2
[2] = tested on: SARS-CoV-2; experiment: Selectivity ratio of EC50 for nirmatrelvir-resistant SARS-CoV-2 harboring rL50F/E166A/L167F mutant infected in human Caco-2 cells expressing hTMPRSS/hACE2 to EC50 for wild-type SARS-CoV-2 WA1 infected in human Caco-2 cells expressing hTMPRSS/hACE2; type: functional

CC(C)(C)[C@H](NC(=O)C(F)(F)F)C(=O)N1C[C@H]2[C@@H]([C@H]1C(=O)N[C@H](C#N)C[C@@H]1CCNC1=O)C2(C)C
EC50 [1]: 501 nM
Ratio EC50 [2]: 14.8
